pIC50: −log10 of the molar value.
Legend:
[1] = Solid stability test for Crystal Form A (high temperature, high humidity, strong light, accelerated conditions); format: physicochemical
Text: See Table 3 below for chromatographic conditions for the HPLC method of solid stability testing:
According to the Guideline for Stability Testing of APIs and Formulations (Chinese Pharmacopoeia 2015 Edition, Volume IV, General Principles 9001).
After being placed under high temperature and high humidity conditions, samples were placed in a desiccator for examination. On the 5th, 10th and 30th days, samples were taken for testing, and the results were compared with the initial test results on day 0. Samples placed under strong light condition were covered with a transparent lid and sealed with a sealing film and samples were taken on the 5th and 10th for testing and the results were compared to the initial test results on day 0. […] Each aliquot was placed in a double-layer LDPE bag. Each layer of LDPE bag was sealed by tying, respectively. Then the LDPE bag was placed in an aluminum foil bag and heat sealed and placed at 25° C./60% relative humidity. Samples were taken at the 3th month, 6th month, 9th month and 12th month, and placed under 40° C./75% relative humidity. Samples were taken at the 1st month, 2^ed month, 3th month and 6th month, respectively. The test results were compared with the initial test results on day 0.

[2] = biological target: T1, human ETA receptors (Homo sapiens, UniProt P25101); assay: In vitro antagonistic effect on human ETA receptors (Ca2+ fluorescence, SK-N-MC cells); format: cell-based
T1 construct: endogenously expressed human ETA receptors in SK-N-MC cells; host or cells: SK-N-MC cells
T1 sequence (P25101 21-427): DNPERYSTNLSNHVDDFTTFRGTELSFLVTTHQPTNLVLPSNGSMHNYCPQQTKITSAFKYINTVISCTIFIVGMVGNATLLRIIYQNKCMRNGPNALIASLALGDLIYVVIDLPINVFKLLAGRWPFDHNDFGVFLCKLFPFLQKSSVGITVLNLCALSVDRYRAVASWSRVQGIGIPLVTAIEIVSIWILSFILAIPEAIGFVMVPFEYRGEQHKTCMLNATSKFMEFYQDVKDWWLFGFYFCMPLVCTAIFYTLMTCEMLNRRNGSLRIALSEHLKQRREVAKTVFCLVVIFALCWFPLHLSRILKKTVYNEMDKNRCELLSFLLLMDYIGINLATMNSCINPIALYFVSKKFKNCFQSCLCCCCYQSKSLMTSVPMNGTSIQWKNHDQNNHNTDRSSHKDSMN
Experimental: The antagonistic activity of the compounds on endogenously expressed human ETA receptors in SK-N-MC cells was assessed by measuring the effects of the compounds on changes in cytoplasmic Ca^2+ ion signaling induced by an agonist of human ETA receptor using a fluorescence assay. The functional activity of the ETA receptor antagonistic effect was tested at Eurofins-Cerep SA according to current standard operating procedures.
• 1. Cells were suspended in Dulbecco's modified Eagle medium solution (DMEM, Invitrogen) supplemented with 1% FCSd and then distributed at a density of 5×10^4 cells/well in 384 plates (100 μL/well). • 2. Hank's Balanced Salt Solution (HBSS, Invitrogen) supplemented with 20 mM 4-(2-hydroxyethyl) piperazine-1-ethanesulfonic acid (Hepes, Invitrogen) (pH 7.4) was mixed with the fluorescent probe (Fluo4 NW, Invitrogen) and added to each well. Equilibrated with the cells for 60 minutes at 37° C. and then for 15 min at 22° C. • 3. The assay plate was placed in a microplate reader (CellLux, PerkinElmer). DMSO solution of the test compound and the positive control in appropriate concentration or HBSS buffer was added. After 5 minutes, 1 nM endothelin-1 or HBSS buffer (basal control) was added. Then the change in fluorescence intensity was measured. The fluorescence intensity is in proportion to the Ca^2+ ion concentration of the free cytosol. • 4. […] The standard positive control was BQ-123 and several concentrations were tested in each experiment and the data was analyzed using Prism to produce a concentration-response curve to calculate the IC50 values of the compounds. • 6.

[3] = 25° C./60% relative humidity, sealed, 3 months
[4] = 25° C./60% relative humidity, sealed, 6 months
[5] = 25° C./60% relative humidity, sealed, 9 months
[6] = 25° C./60% relative humidity, sealed, 12 months
[7] = 40° C., 75% relative humidity, sealed, 1 month
[8] = 40° C., 75% relative humidity, sealed, 2 months
[9] = 40° C., 75% relative humidity, sealed, 3 months
[10] = 40° C., 75% relative humidity, sealed, 6 months
[11] = High humidity (room temperature/92.5% relative humidity, open), 5 days
[12] = High humidity (room temperature/92.5% relative humidity, open), 10 days
[13] = High humidity (room temperature/92.5% relative humidity, open), 30 days
[14] = High temperature (60° C., open), 5 days
[15] = High temperature (60° C., open), 10 days
[16] = High temperature (60° C., open), 30 days
[17] = Strong light (4500 ± 500 lux-hr, 90 μw-hr/cm^2, sealed), 5 days
[18] = Strong light (4500 ± 500 lux-hr, 90 μw-hr/cm^2, sealed), 10 days

## COCCNS(=O)(=O)Nc1ncnc(OCCOc2ncc(Br)cn2)c1-c1ccc2c(c1)OCO2
[1]; 0 day (initial)
  Appearance: White powder
  Crystal Form: Crystal Form A
  Crystal Form A of the compound of formula (I) (%): 99.2%
  Total impurities (%): 0.26%
[1]; [3]
  Appearance: White powder
  Crystal Form: Crystal Form A
  Crystal Form A of the compound of formula (I) (%): 100.2%
  Total impurities (%): 0.13%
[1]; [4]
  Appearance: White powder
  Crystal Form: Crystal Form A
  Crystal Form A of the compound of formula (I) (%): 100.1%
  Total impurities (%): 0.20%
[1]; [5]
  Appearance: White powder
  Crystal Form A of the compound of formula (I) (%): 100.0%
  Total impurities (%): 0.13%
[1]; [6]
  Appearance: White powder
  Crystal Form A of the compound of formula (I) (%): 100.1%
  Total impurities (%): 0.16%
[1]; [7]
  Appearance: White powder
  Crystal Form A of the compound of formula (I) (%): 99.2%
  Total impurities (%): 0.14%
[1]; [8]
  Appearance: White powder
  Crystal Form A of the compound of formula (I) (%): 99.3%
  Total impurities (%): 0.14%
[1]; [9]
  Appearance: White powder
  Crystal Form: Crystal Form A
  Crystal Form A of the compound of formula (I) (%): 100.6%
  Total impurities (%): 0.13%
[1]; [10]
  Appearance: White powder
  Crystal Form: Crystal Form A
  Crystal Form A of the compound of formula (I) (%): 100.2%
  Total impurities (%): 0.20%
[1]; [11]
  Appearance: White powder
  Crystal Form A of the compound of formula (I) (%): 99.7%
  Total impurities (%): 0.30%
[1]; [12]
  Appearance: White powder
  Crystal Form A of the compound of formula (I) (%): 99.5%
  Total impurities (%): 0.31%
[1]; [13]
  Appearance: White powder
  Crystal Form A of the compound of formula (I) (%): 99.5%
  Total impurities (%): 0.15%
[1]; [14]
  Appearance: White powder
  Crystal Form A of the compound of formula (I) (%): 100.1%
  Total impurities (%): 0.30%
[1]; [15]
  Appearance: White powder
  Crystal Form A of the compound of formula (I) (%): 100.0%
  Total impurities (%): 0.31%
[1]; [16]
  Appearance: White powder
  Crystal Form A of the compound of formula (I) (%): 99.1%
  Total impurities (%): 0.14%
[1]; [17]
  Appearance: White powder
  Crystal Form A of the compound of formula (I) (%): 99.7%
  Total impurities (%): 0.29%
[1]; [18]
  Appearance: White powder
  Crystal Form A of the compound of formula (I) (%): 99.6%
  Total impurities (%): 0.30%
[1]; high temperature, high humidity or strong light condition
  Solid stability (conclusion in words): good stability
[2]
  In vitro antagonistic activity against the human ETA receptor (in words): very high
  Selectivity for ETA over ETB: 20,000 fold
[2]; SK-N-MC cells, 1 nM endothelin-1
  pIC50: 8.80
[2]; table value
  ETA/ETB Selectivity: 20000
